Experiments:
[1] = tested on: Plasmopara viticola; test: Plasmopara viticola (downy mildew of grapevine), grape vine leaf disks, preventive; assay type: in vivo; settings: foliar, 168 h, 7 dpi, compared to untreated control
Experimental: (§1) Grape vine leaf disks are placed on agar in multiwell plates (24-well format) and sprayed with test solutions. After drying, the leaf disks are inoculated with a spore suspension of the fungus. After appropriate incubation the activity of a compound is assessed 7 dpi (days after inoculation) as preventive fungicidal activity.

[2] = tested on: Puccinia recondita f. sp. tritici; test: Puccinia recondita (brown rust), preventative, wheat leaf segments; assay type: in vivo; settings: foliar, 192 h, 8 dpi, compared to untreated control
Experimental: as §1, with “Wheat” for “Grape vine”, “segments” for “disks”, “8” for “7”, “preventative” for “preventive”

[3] = tested on: Erysiphe graminis f. sp. tritici; test: Erysiphe graminis f. sp. tritici (wheat powdery mildew), wheat leaf segments, preventive; assay type: in vivo; settings: Blumeria graminis, foliar, 168 h, 7 dpi, compared to untreated control
Experimental: Wheat leaf segments are placed on agar in multiwell plates (24-well format) and sprayed with test solutions. After drying, the leaf disks are inoculated with spores of the fungus. After appropriate incubation the activity of a compound is assessed 7 dpi (days post inoculation) as preventive fungicidal activity.

[4] = tested on: Phytophthora infestans; test: whole plant or invertebrate; assay type: in vivo; settings: in Solanum lycopersicum, foliar, 96 h, read-out: control of Phytophthora infestans
[5] = tested on: Mycosphaerella arachidis; test: Mycosphaerella arachidis syn. Cercospora arachidicola (brown leaf spot of peanut), liquid culture growth inhibition; assay type: cell-based; settings: nutrient broth (PDB), approximately 5-6 days, photometric at 620 nm, compared to untreated control
Experimental: (§2) Conidia of the fungus from cryogenic storage were directly mixed into nutrient broth (PDB potato dextrose broth). A DMSO solution of the test compounds was placed into a microtiter plate (96-well format) and the nutrient broth containing the fungal spores was added to it. The test plates were incubated at 24° C. and the inhibition of growth was determined photometrically after approximately 5-6 5 days at 620 nm.

[6] = tested on: Monographella nivalis; test: Monographella nivalis syn. Microdochium nivale (snow mould, foot rot of cereals), liquid culture growth inhibition; assay type: cell-based; settings: nutrient broth (PDB), 72 hrs, photometric at 620 nm, compared to untreated control
Experimental: as §2, with “72 hrs” for “approximately 5-6 5 days”, “nm. […] Cercospora arachidicola (Brown Leaf Spot of Peanut): […]” for “nm.”

[7] = tested on: Glomerella lagenarium; test: Glomerella lagenarium syn. Colletotrichum lagenarium (anthracnose of cucurbits), liquid culture growth inhibition; assay type: cell-based; settings: Colletotrichum orbiculare, nutrient broth (PDB), 72 hrs, photometric at 620 nm, compared to untreated control
Experimental: as §2, with “Glomerella lagenarium Syn. Colletotrichum lagenarium (Anthracnose of Cucurbits): Conidia” for “Conidia”, “72 hrs” for “approximately 5-6 5 days”, “nm. […]” for “nm.”

[8] = tested on: Puccinia recondita f. sp. tritici; test: Puccinia recondita (brown rust), curative, wheat leaf segments; assay type: in vivo; settings: foliar, 192 h, sprayed 1 day after inoculation, 8 dpi, compared to untreated control
Experimental: Wheat leaf segments are placed on agar in multiwell plates (24-well format). The leaf segments are inoculated with a spore suspension of the fungus and sprayed with test solutions 1 day after inoculation. After appropriate incubation the activity of a compound is assessed 8 dpi (days after inoculation) as curative fungicidal activity.

[9] = tested on: Phakopsora pachyrhizi; test: Phakopsora pachyrhizi (soybean rust), soybean leaf disks, preventive; assay type: in vivo; settings: foliar, 288 h, approx. 12 dpi, compared to untreated control
Experimental: as §1, with “Soybean” for “Grape vine”, “approx. 12” for “7”

[10] = tested on: Pyricularia oryzae; test: whole plant or invertebrate; assay type: in vivo; settings: foliar, 120 h, read-out: control of Pyricularia oryzae
[11] = tested on: Alternaria solani; test: Alternaria solani (early blight of tomatoes), tomato leaf disks; assay type: in vivo; settings: foliar, inoculated 2 days after application, compared to untreated control
Experimental: Alternaria solani (Early Blight of Tomatoes) Tomato leaf disks are placed on agar in multiwell plates (24-well format) and sprayed with the formulated test compound diluted in water. The leaf disks are inoculated with a spore suspension of the fungus 2 days after application. The inoculated leaf disks are incubated at 23° C./21° C.

Row | SMILES | pest or weed control at 200 ppm [1] [%] | pest or weed control at 200 ppm [2] [%] | pest or weed control at 200 ppm [3] [%] | pest or weed control at 200 ppm [4] [%] | inhibition of growth at 20 ppm [5] [%] | inhibition of growth at 20 ppm [6] [%] | inhibition of growth at 20 ppm [7] [%] | pest or weed control at 200 ppm [8] [%] | pest or weed control at 60 ppm [9] [%] | pest or weed control at 200 ppm [10] [%] | pest or weed control at 200 ppm [11] [%]
1 | CO/C=C(\Oc1cc(C2CCC(C)(C)CC2)ccc1C)C(=O)OC [E.2, methyl (Z)-2-[5-(4,4-dimethylcyclohexyl)-2-methyl-phenoxy]-3-methoxy-prop-2-enoate] | ≥ 80 | ≥ 80 | ≥ 80 | ≥ 80 | ≥ 80 | ≥ 80 | – | – | – | – | –
2 | CO/C=C(\Oc1cc(C2CCCCC2)ccc1Cl)C(=O)OC [E.9, methyl (Z)-2-(2-chloro-5-cyclohexyl-phenoxy)-3-methoxy-prop-2-enoate] | ≥ 80 | ≥ 80 | ≥ 80 | ≥ 80 | ≥ 80 | ≥ 80 | ≥ 80 | – | – | – | –
3 | CO/C=C(\Oc1cc(C2=CCCCC2)c(F)cc1C)C(=O)OC [F.6, methyl (Z)-2-[5-(cyclohexen-1-yl)-4-fluoro-2-methyl-phenoxy]-3-methoxy-prop-2-enoate] | ≥ 80 | ≥ 80 | ≥ 80 | – | ≥ 80 | ≥ 80 | ≥ 80 | ≥ 80 | ≥ 70 | – | –
4 | CO/C=C(\Oc1cc(C2CCC2)ccc1C)C(=O)OC [E.12, methyl (Z)-2-(5-cyclobuty1-2-methyl-phenoxy)-3-methoxy-prop-2-enoate] | ≥ 80 | ≥ 80 | ≥ 80 | – | ≥ 80 | ≥ 80 | ≥ 80 | ≥ 80 | ≥ 70 | ≥ 80 | –
5 | CO/C=C(\Oc1cc(C2=CCC(F)(F)CC2)ccc1C)C(=O)OC [F.3, methyl (Z)-2-[5-(4,4-difluorocyclohexen-1-yl)-2-methyl-phenoxy]-3-methoxy-prop-2-enoate] | ≥ 80 | ≥ 80 | ≥ 80 | – | ≥ 80 | ≥ 80 | ≥ 80 | – | ≥ 70 | – | –
6 | CO/C=C(\Oc1cc(C2=CCC(C(F)F)CC2)ccc1C)C(=O)OC (stereo not shown) [F.7, methyl (Z)-2-[5-[4-(difluoromethyl)cyclohexen-1-yl]-2-methyl-phenoxy]-3-methoxy-prop-2-enoate] | ≥ 80 | ≥ 80 | ≥ 80 | – | ≥ 80 | ≥ 80 | ≥ 80 | ≥ 80 | – | – | ≥ 80
7 | CCON=C1CCC(c2ccc(C)c(O/C(=C\OC)C(=O)OC)c2)CC1 (stereo not shown) [E.21, methyl (Z)-2-[5-(4-ethoxyiminocyclohexyl)-2-methyl-phenoxy]-3-methoxy-prop-2-enoate] | ≥ 80 | ≥ 80 | ≥ 80 | – | ≥ 80 | ≥ 80 | ≥ 80 | ≥ 80 | ≥ 70 | ≥ 80 | –
8 | CO/C=C(\Oc1cc(C2CCC(=NOC)CC2)ccc1C)C(=O)OC (stereo not shown) [E.20, methyl (Z)-3-methoxy-2-[5-(4-methoxyimino-cyclohexyl)-2-methyl-phenoxy]prop-2-enoate] | ≥ 80 | ≥ 80 | ≥ 80 | – | ≥ 80 | ≥ 80 | ≥ 80 | ≥ 80 | ≥ 70 | ≥ 80 | ≥ 80
9 | CO/C=C(\Oc1cc(C2CC2)ccc1C)C(=O)OC [E.14, methyl (Z)-2-(5-cyclopropy1-2-methyl-phenoxy)-3-methoxy-prop-2-enoate] | ≥ 80 | ≥ 80 | ≥ 80 | – | ≥ 80 | ≥ 80 | ≥ 80 | – | ≥ 70 | – | –
10 | CO/C=C(\Oc1cc(C2CC(C)(C)CCC2=O)ccc1C)C(=O)OC (stereo not shown) [E.5, methyl (Z)-2-[5-(5,5-dimethyl-2-oxo-cyclohexyl)-2-methyl-phenoxy]-3-methoxy-prop-2-enoate] | ≥ 80 | ≥ 80 | ≥ 80 | ≥ 80 | – | – | – | – | – | – | –
11 | CO/C=C(\Oc1cc(C2=CC(C)(C)CCC2=O)ccc1C)C(=O)OC [F.1, methyl (Z)-2-[5-(3,3-dimethyl-6-oxo-cyclohexen-1-yl)-2-methyl-phenoxy]-3-methoxy-prop-2-enoate] | ≥ 80 | ≥ 80 | ≥ 80 | – | – | – | ≥ 80 | – | – | ≥ 80 | ≥ 80
12 | CO/C=C(\Oc1cc(C2CCC(C(F)F)CC2)ccc1C)C(=O)OC (stereo not shown) [E.22, methyl (Z)-2-[5-[4-(difluoromethyl)cyclohexyl]-2-methyl-phenoxy]-3-methoxy-prop-2-enoate] | ≥ 80 | ≥ 80 | ≥ 80 | ≥ 80 | ≥ 80 | ≥ 80 | ≥ 80 | – | – | – | ≥ 80
13 | CO/C=C(\Oc1cc(C2=CCCCC2)ccc1C)C(=O)OC [F.2, methyl (Z)-2-[5-(cyclohexen-1-yl)-2-methyl-phenoxy]-3-methoxy-prop-2-enoate] | ≥ 80 | ≥ 80 | ≥ 80 | – | – | – | ≥ 80 | ≥ 80 | ≥ 70 | – | –
14 | CO/C=C(\Oc1cc(C2CC2C2CC2)ccc1C)C(=O)OC (stereo not shown) [E.7, methyl (Z)-2-[5-(2-cyclopropylcyclopropyl)-2-methyl-phenoxy]-3-methoxy-prop-2-enoate] | ≥ 80 | ≥ 80 | ≥ 80 | ≥ 80 | ≥ 80 | ≥ 80 | ≥ 80 | ≥ 80 | – | ≥ 80 | –
15 | CO/C=C(\Oc1cc(C2CCC(OC(F)F)CC2)ccc1C)C(=O)OC (stereo not shown) [E.23, methyl (Z)-2-[5-[4-(difluoromethoxy)cyclohexyl]-2-methyl-phenoxy]-3-methoxy-prop-2-enoate] | ≥ 80 | ≥ 80 | ≥ 80 | – | ≥ 80 | ≥ 80 | ≥ 80 | – | – | ≥ 80 | ≥ 80

From patent US12262710B2, “Fungicidal compounds” (SYNGENTA CROP PROTECTION AG, priority 2019, dated 2025)
